Test results published in the supplement of paper PMC10307832.

Columns and labels:
Test in all cases: relative viability (nuclei count vs DMSO), 5 days (fraction); higher = more cells survive
[1] = compound: CCOc1cc2ncc(C#N)c(Nc3ccc(OCc4ccccn4)c(Cl)c3)c2cc1NC(=O)/C=C/CN(C)C [Neratinib] + CS(=O)(=O)N1CCN(Cc2cc3nc(-c4cccc5[nH]ncc45)nc(N4CCOCC4)c3s2)CC1 [Pictilisib] (partner 1 µM)
In short: (§1)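 One day after seeding in 1536-well plates, lung cancer cell lines were dosed by pin tool. Dosing was either single-drug or a fixed anchor-drug dose plus five library-drug doses (not always all listed) in √10 steps. After 5 days, nuclei were stained in one fix-and-stain step and counted on 4× images, and relative viability is the nuclei count of treated wells over that of vehicle wells, given as the median of duplicate plates.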

[2] = compound: CCOc1cc2ncc(C#N)c(Nc3ccc(OCc4ccccn4)c(Cl)c3)c2cc1NC(=O)/C=C/CN(C)C [Neratinib] + CC(C)C[C@H](NC(=O)[C@H](Cc1ccccc1)NC(=O)c1cnccn1)B(O)O [Bortezomib] (partner 0.002 µM)
In short: as §1

[3] = compound: CCOc1cc2ncc(C#N)c(Nc3ccc(OCc4ccccn4)c(Cl)c3)c2cc1NC(=O)/C=C/CN(C)C [Neratinib] + O=C(c1cc(Cc2n[nH]c(=O)c3ccccc23)ccc1F)N1CCN(C(=O)C2CC2)CC1 [Olaparib] (partner 8 µM)
In short: as §1

[4] = compound: CCOc1cc2ncc(C#N)c(Nc3ccc(OCc4ccccn4)c(Cl)c3)c2cc1NC(=O)/C=C/CN(C)C [Neratinib] + CC(=O)Nc1cccc(-n2c(=O)n(C3CC3)c(=O)c3c(Nc4ccc(I)cc4F)n(C)c(=O)c(C)c32)c1 [Trametinib] (partner 0.02 µM)
In short: as §1

Cell Line	relative viability ([1]; first compound 0.01 µM)	relative viability ([1]; first compound 0.03162 µM)	relative viability ([1]; first compound 0.1 µM)	relative viability ([1]; first compound 0.3162 µM)	relative viability ([1]; first compound 1 µM)	relative viability ([2]; first compound 0.01 µM)	relative viability ([2]; first compound 0.03162 µM)	relative viability ([2]; first compound 0.1 µM)	relative viability ([2]; first compound 0.3162 µM)	relative viability ([2]; first compound 1 µM)	relative viability ([3]; first compound 0.01 µM)	relative viability ([3]; first compound 0.03162 µM)	relative viability ([3]; first compound 0.1 µM)	relative viability ([3]; first compound 0.3162 µM)	relative viability ([3]; first compound 1 µM)	relative viability ([4]; first compound 0.01 µM)	relative viability ([4]; first compound 0.03162 µM)	relative viability ([4]; first compound 0.1 µM)	relative viability ([4]; first compound 0.3162 µM)	relative viability ([4]; first compound 1 µM)
LCLC-103H	0.597	0.668	0.575	0.582	0.587	1.18	1.1	0.905	1.16	1.1	0.63	0.85	0.705	0.726	0.642	0.739	0.733	0.618	0.681	0.639
LOU-NH91	0.53	0.496	0.483	0.484	0.469	0.477	0.51	0.484	0.507	0.559	0.977	0.944		0.678	0.632	0.795	0.746	0.698	0.67	0.597
LU99A	0.31	0.311	0.285	0.263	0.207	1.11	1.18	0.762	0.927	0.413	0.251	0.286	0.246	0.268		0.578		0.515	0.527	0.43
LXF-289	0.785	0.821		0.759	0.418	1.02	0.998	0.93	1.03	0.975	1.12	1.28	0.931	1.06	0.889	0.739	0.733	0.674	0.685	0.536
NCI-H23	0.553	0.428	0.437	0.483	0.372	0.964	1.31	1.07	1.13	0.821	0.283	0.284	0.317	0.328	0.314	0.397	0.401	0.35	0.342	0.251
NCI-H322M	0.528	0.455	0.499	0.333	0.327	1.15	1.2	1.1	0.809	0.36	0.715		0.785	0.512	0.415	0.519	0.486	0.506	0.488	0.373
NCI-H441	0.508	0.482	0.456	0.313	0.191	0.661	0.381	0.372	0.54	0.265	0.57	0.438	0.488	0.48	0.417	0.509	0.428	0.356	0.332	0.245
NCI-H460	0.325	0.384	0.294	0.323	0.32	1.22	1.36		1.27	0.587	0.428	0.43	0.383	0.415	0.419	0.233	0.116	0.083	0.154	0.0847
NCI-H520	0.297	0.377	0.222	0.215	0.188	0.468	0.788	0.448	0.426	0.31	0.303	0.321		0.349	0.194	0.642	0.804		0.605	0.421
NCI-H596	0.374	0.417	0.35	0.4	0.329		1.32	1.12	1.08	0.843	0.633	0.726	0.622	0.659	0.574	0.825	0.947	0.765	0.707	0.641
NCI-H647	0.437	0.506	0.456	0.364	0.183		0.914	0.586	0.558	0.664	0.426	0.518	0.4	0.294	0.263	0.439	0.543	0.366	0.466	0.229
NCI-H650	0.974	0.898	0.729		0.644	0.94	1.07	1.08		0.852	0.39	0.434	0.372	0.318	0.392	0.968	1.03	1.16		0.937
NCI-H661	0.507	0.399	0.303	0.24	0.272	0.779	0.697	0.675	0.446	0.24	0.838	0.743	0.555	0.605	0.534	0.63	0.568	0.447	0.352	0.276
NCI-H727	0.337	0.256		0.516	0.258	0.961	0.914		0.893	0.536	0.796	0.678		0.764	0.613	0.398	0.427		0.355	0.332
NCI-H838	0.466	0.54	0.473	0.375	0.25	0.921	1.12	0.729	0.627	0.328	0.762	0.785	0.798	0.649	0.399	0.53	0.554	0.502	0.499	0.281
NCI-H1355	0.485	0.482	0.395	0.365	0.232	1.23	1.3	1.16	1.02	0.752	0.772	0.719	0.7	0.701	0.547	0.422	0.421	0.344	0.361	0.349
NCI-H1437	0.474	0.553	0.356	0.325	0.343	0.639		0.565	0.385	0.475	0.673	0.614	0.612	0.603	0.663	0.488	0.579	0.485	0.424	0.328

Cell Line	relative viability ([1]; first compound 0.01 µM)	relative viability ([1]; first compound 0.03162 µM)	relative viability ([1]; first compound 0.1 µM)	relative viability ([1]; first compound 0.3162 µM)	relative viability ([1]; first compound 1 µM)	relative viability ([2]; first compound 0.01 µM)	relative viability ([2]; first compound 0.03162 µM)	relative viability ([2]; first compound 0.1 µM)	relative viability ([2]; first compound 0.3162 µM)	relative viability ([2]; first compound 1 µM)	relative viability ([3]; first compound 0.01 µM)	relative viability ([3]; first compound 0.03162 µM)	relative viability ([3]; first compound 0.1 µM)	relative viability ([3]; first compound 0.3162 µM)	relative viability ([3]; first compound 1 µM)	relative viability ([4]; first compound 0.01 µM)	relative viability ([4]; first compound 0.03162 µM)	relative viability ([4]; first compound 0.1 µM)	relative viability ([4]; first compound 0.3162 µM)	relative viability ([4]; first compound 1 µM)
NCI-H1650	0.565	0.682	0.513	0.531	0.517	0.207	0.201	0.206	0.228	0.197	0.867	0.712	0.717	0.652	0.796	0.62	0.744	0.494	0.405	0.315
NCI-H1651	0.661	0.633	0.422	0.449	0.343	1.07	1.13	0.86	0.902	0.852	0.183	0.191	0.185	0.19	0.193	0.87		0.793	0.759	0.609
NCI-H1666	0.549		0.327	0.218	0.271	0.894	0.896	0.767	0.609	0.662	0.751	0.806	0.675	0.666	0.806	0.868	0.815	0.712	0.637	0.78
NCI-H1734	0.5	0.464	0.428	0.432	0.346	1.27	0.996	0.912	0.934	0.74	0.76	0.694	0.545	0.525	0.457	0.781	0.788	0.587		0.503
NCI-H1755	0.475	0.455	0.407	0.36	0.209	1.08	0.934		1.04	0.958	0.925	0.922	0.807	0.918	0.824	0.761	0.814	0.646	0.752	0.809
NCI-H1792	0.311	0.274	0.254	0.278	0.126	1.01	0.965	0.897	0.896	0.745	0.0369	0.65	0.376	0.257	0.174	0.476	0.663	0.423	0.39	0.26
NCI-H1915		1.03	0.93	0.904	0.881	1.06	1.03	0.952	0.874	0.962	0.232		0.221	0.245	0.252	0.32	0.314	0.294	0.299	0.23
NCI-H1975	0.328	0.372	0.209	0.104	0.143	0.36	0.428	0.423	0.252	0.191	0.917	0.96	0.644	0.43	0.18	0.388	0.542	0.373	0.233	0.165
NCI-H1993		0.772	0.721	0.796			1.11	0.763	0.646		1.33	1.06	0.996	0.704		0.445	0.505	0.512	0.419	0.54
NCI-H2009	0.862	0.892	0.727	0.638	0.432	0.998	1.08	0.856	0.825		0.691	0.752	0.65	0.689	0.732	0.301	0.262	0.307	0.266	0.179
NCI-H2023	0.209	0.233	0.233	0.228	0.177	1.08	1.08	0.802	0.995	0.69	0.448	0.415	0.365	0.42	0.386	0.594	0.491	0.371	0.43	0.399
NCI-H2085	0.526	0.436	0.462	0.408	0.373	1.05		0.869	1.06	0.76	0.755	0.8	0.729	0.644	0.639	0.605	0.698	0.545	0.397	0.315
NCI-H2087	0.989	0.899		0.799	0.492	0.775	0.867		0.782	0.857	0.622	0.496	0.643	0.424	0.255	0.19	0.173	0.15	0.194	0.16
NCI-H2126		0.495	0.431	0.414	0.365	1.2	1.13	1.05	1.07	0.821	0.958	0.891	0.815	0.871	0.492	0.646	0.552	0.543	0.497	0.36
NCI-H2228	0.365	0.346	0.301	0.442	0.199	1.16	1.03	1.01	0.765	0.295	0.943	0.576	0.589	0.425	0.199	0.457	0.93	0.359	0.58	0.132
NCI-H2347	0.603	0.547	0.503	0.582	0.524	1.01	1.12	0.808	0.721	1.11		0.59	0.545	0.564	0.455	0.264	0.317	0.262	0.248	0.266
